Active and inactive are the calls of the source. The rule behind the calls is not given here.
Tests used:
Vitamin D3 receptor [1] = target: T1, Vitamin D3 receptor (Homo sapiens, UniProt P11473); assay: Displacement of [3H]-1,25(OH)2D3 from recombinant human VDR ligand binding domain
T1 sequence (P11473 whole entry): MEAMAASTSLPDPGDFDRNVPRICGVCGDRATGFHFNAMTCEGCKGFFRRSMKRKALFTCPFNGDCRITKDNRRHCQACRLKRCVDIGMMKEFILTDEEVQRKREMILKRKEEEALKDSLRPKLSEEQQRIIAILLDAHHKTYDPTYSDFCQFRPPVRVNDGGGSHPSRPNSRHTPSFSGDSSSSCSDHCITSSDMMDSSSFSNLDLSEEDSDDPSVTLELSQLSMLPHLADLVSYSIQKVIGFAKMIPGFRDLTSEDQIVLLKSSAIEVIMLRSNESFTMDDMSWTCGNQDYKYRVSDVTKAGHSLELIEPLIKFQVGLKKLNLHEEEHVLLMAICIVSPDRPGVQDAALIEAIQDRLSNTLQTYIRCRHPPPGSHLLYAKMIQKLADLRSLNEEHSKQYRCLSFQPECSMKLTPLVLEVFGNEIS

[2] = target: T2, Vitamin D3 receptor (Homo sapiens) (UniProt P11473); assay: Displacement of [3H]-1,25(OH)2D3 from recombinant human VDR ligand binding domain relative to 1,25(OH)2D3
T2 sequence (whole entry): T1 sequence (P11473 whole entry)

Vitamin D3 receptor [3] = target: T1, Vitamin D3 receptor; assay: Agonist activity at VDR in human HEK293 cells assessed as transcriptional activity after 16 to 24 hrs by luciferase reporter gene assay; assay type: cell-based
[4] = target: T2, Vitamin D3 receptor (Homo sapiens); assay: Partial agonist activity at VDR in human HEK293 cells assessed as transcriptional activity after 16 to 24 hrs by luciferase reporter gene assay relative to 1,25(OH)2D3; assay type: cell-based
[5] = Drug uptake in human MG63 cells at 1 uM after 5 mins by HPLC analysis in presence of 10% FBS; assay type: ADME, cell-based; conditions: mg-63, 5 min
[6] = Drug uptake in human MG63 cells at 1 uM after 10 mins by HPLC analysis in presence of 10% FBS; assay type: ADME, cell-based; conditions: mg-63, 10 min
[7] = Metabolic stability in human MG63 assessed as compound metabolized at 1 uM after 24 hrs by HPLC analysis; assay type: ADME, MG-63; conditions: MG63 cells, read-out: Drug metabolism
Vitamin D3 receptor [8] = target: T1, Vitamin D3 receptor; assay: (§1) Agonist activity at VDR (unknown origin) expressed in HEK293 cells cotransfected with RXRalpha assessed as RXRalpha recruitment by two-hybrid assay; assay type: cell-based
Vitamin D3 receptor [9] = target: T1, Vitamin D3 receptor; assay: Agonist activity at VDR (unknown origin) expressed in HEK293 cells cotransfected with SRC1 assessed as SRC1 recruitment by two-hybrid assay; assay type: cell-based
Vitamin D3 receptor [10] = target: T1, Vitamin D3 receptor; assay: Agonist activity at VDR (unknown origin) expressed in HEK293 cells cotransfected with NCoR assessed as decrease in NCoR recruitment by two-hybrid assay; assay type: cell-based
[11] = target: T2, Vitamin D3 receptor (Homo sapiens); assay: as §1; assay type: cell-based

IC50 (Vitamin D3 receptor [1]) [nM]	Activity [2] [%]	EC50 (Vitamin D3 receptor [3]) [nM]	Efficacy [4] [%]	Drug uptake [5] [%]	Drug uptake [6] [%]	metabolised at 24 h, 1 µM [7] [%]	EC50 (Vitamin D3 receptor [8]) [nM]	EC50 (Vitamin D3 receptor [9]) [nM]	IC50 (Vitamin D3 receptor [10]) [nM]	Activity [11]	Compound
35	1	30	59	–	–	–	–	–	–	Active	C=C1[C@H](O)CC(=C/C=C2\CCC[C@]3(C)[C@@H](C#CC#C[C@H](O)CC45CC6CC(CC(C6)C4)C5)CC[C@@H]23)C[C@H]1O
35	1	20	–	–	–	–	–	–	–	Active	C=C1[C@H](O)CC(=C/C=C2\CCC[C@]3(C)[C@@H](C#CC#C[C@@H](O)CC45CC6CC(CC(C6)C4)C5)CC[C@@H]23)C[C@H]1O

Second part, the molecule before the results:

Compound	IC50 (Vitamin D3 receptor [1]) [nM]	Activity [2] [%]	EC50 (Vitamin D3 receptor [3]) [nM]	Efficacy [4] [%]	Drug uptake [5] [%]	Drug uptake [6] [%]	metabolised at 24 h, 1 µM [7] [%]	EC50 (Vitamin D3 receptor [8]) [nM]	EC50 (Vitamin D3 receptor [9]) [nM]	IC50 (Vitamin D3 receptor [10]) [nM]	Activity [11]
C=C1[C@H](O)CC(=C/C=C2\CCC[C@]3(C)[C@@H](C#CC#C[C@H](O)C45CC6CC(CC(C6)C4)C5)CC[C@@H]23)C[C@H]1O	12.5	3	7	41	–	–	–	–	–	–	–
C=C1[C@H](O)CC(=C/C=C2\CCC[C@]3(C)[C@@H](C#CC#C[C@@H](O)C45CC6CC(CC(C6)C4)C5)CC[C@@H]23)C[C@H]1O	5	7	1.5	86	5.9	7.7	8	0.7	4.5	0.09	–
C=C1/C(=C\C=C2/CCC[C@]3(C)[C@@H]([C@H](C)CCCC(C)(C)O)CC[C@@H]23)C[C@@H](O)C[C@@H]1O [CALCITRIOL]	–	–	–	–	2.5	2.7	25	–	–	–	–
